We go through five compounds from patent US20160145267A1, “HETEROARYL SUBSTITUTED PYRAZOLES” (BAYER PHARMA AKTIENGESELLSCHAFT, priority 2013, published 2016).

Assay [1] deals with T1, catalytic domain of human Bub1 (amino acids 704-1085) (Homo sapiens, UniProt O43683).
T1 construct: catalytic domain of human Bub1 (amino acids 704-1085); His6 (N); made in house; host or cells: Hi5 insect cells
Description: Bub1 kinase assay (TR-FRET). Type of assay: biochemical. Background: Time-resolved FRET reads energy transfer from a long-lived donor to a nearby acceptor.

Another assay relates to HeLa cell line. Description: Proliferation assay (HeLa cell line). The settings on record: Homo sapiens, 96 h, read-out: Biological Assay 2: Proliferation assay (HeLa cell line) median IC50. Type of assay: cell-based.
The next assay deals with HeLa-MaTu-ADR cell line. The assay can be described thus: Proliferation assay (HeLa-MaTu-ADR cell line). Type of assay: cell-based. The conditions noted are these: 96 h, read-out: Biological Assay 2: Proliferation assay (HeLa-MaTu-ADR cell line) median IC50. The protocol: (§1) Cultivated tumor cells (cells were ordered from ATCC, except HeLa-MaTu and HeLa-MaTu-ADR, which were ordered from EPO-GmbH, Berlin) were plated at a density of 1000 to 5000 cells/well, depending on the growth rate of the respective cell line, in a 96-well multititer plate in 200 μL of their respective growth medium supplemented 10% fetal calf serum. After 24 hours, the cells of one plate (zero-point plate) were stained with crystal violet (see below), while the medium of the other plates was replaced by fresh culture medium (200 μL), to which the test substances were added in various concentrations (0 μM, as well as in the range of 0.001-10 μM; the final concentration of the solvent dimethyl sulfoxide was 0.5%). The cells were incubated for 4 days in the presence of test substances. Cell proliferation was determined by staining the cells with crystal violet: the cells were fixed by adding 20 μL/measuring point of an 11% glutaric aldehyde solution for 15 minutes at room temperature. After three washing cycles of the fixed cells with water, the plates were dried at room temperature. The cells were stained by adding 100 μL/measuring point of a 0.1% crystal violet solution (pH 3.0). After three washing cycles of the stained cells with water, the plates were dried at room temperature. The dye was dissolved by adding 100 μl/measuring point of a 10% acetic acid solution. Absorbtion was determined by photometry at a wavelength of 595 nm. The change of cell number, in percent, was calculated by normalization of the measured values to the absorbtion values of the zero-point plate (=0%) and the absorbtion of the untreated (0 μm) cells (=100%). The IC50 values were determined by means of a 4 parameter fit.

A further assay relates to NCl-H460 cell line. Description: Proliferation assay (NCI-H460 cell line). Type of assay: cell-based. The conditions noted are these: Homo sapiens, NCI-H460, 96 h, read-out: Biological Assay 2: Proliferation assay (NCl-H460 cell line) median IC50. How it is done: as §1
In a further assay the test system is DU145 cell line. The assay can be described thus: Proliferation assay (DU145 cell line). Type of assay: cell-based. The conditions noted are these: Homo sapiens, DU-145, 96 h, read-out: Biological Assay 2: Proliferation assay (DU145 cell line) median IC50. How it is done: as §1
Another assay relates to Caco2 cell line. The assay can be described thus: Proliferation assay (Caco2 cell line). Type of assay: cell-based. The conditions noted are these: Homo sapiens, Caco-2, 96 h, read-out: Biological Assay 2: Proliferation assay (Caco2 cell line) median IC50. The protocol: as §1
The subject of another assay is B16F10 cell line. The assay can be described thus: Proliferation assay (B16F10 cell line). The conditions noted are these: Mus musculus, B16-F10, 96 h, read-out: Biological Assay 2: Proliferation assay (B16F10 cell line) median IC50. Type of assay: cell-based. The protocol:
as §1

Setting [2] is: 10 μM ATP, 1 μM peptide substrate, TR-FRET, read-out: Biological Assay 1: Bub1 kinase assay median IC50.
Where [3] appears, read: HeLa-MaTu-ADR, 4 days incubation, crystal violet staining.
Where [4] appears, read: NCl-H460, 4 days incubation, crystal violet staining.
Where [5] appears, read: DU145, 4 days incubation, crystal violet staining.
[6] abbreviates: Caco2, 4 days incubation, crystal violet staining.
[7] abbreviates: B16F10, 4 days incubation, crystal violet staining.

Where two headings read alike, the source gives them in different places.

T1 sequence (O43683 704-1085): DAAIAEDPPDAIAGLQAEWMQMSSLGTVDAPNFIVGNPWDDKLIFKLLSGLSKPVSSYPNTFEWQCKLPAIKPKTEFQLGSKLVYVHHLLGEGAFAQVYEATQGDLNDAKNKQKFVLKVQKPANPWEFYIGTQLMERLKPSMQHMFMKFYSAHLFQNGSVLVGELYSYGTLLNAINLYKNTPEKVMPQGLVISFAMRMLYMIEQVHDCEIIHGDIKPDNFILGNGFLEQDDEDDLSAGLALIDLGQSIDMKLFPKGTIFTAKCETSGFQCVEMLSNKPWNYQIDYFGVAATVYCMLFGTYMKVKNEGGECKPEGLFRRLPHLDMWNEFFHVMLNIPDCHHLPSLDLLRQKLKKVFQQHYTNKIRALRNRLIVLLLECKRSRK

Regarding `CCNC(=O)Nc1cc(Nc2ccncc2)nc(-c2nn(Cc3c(F)cc(OCC)cc3F)c(C3CC3)c2C)n1` [Example 2-1-10, 1-{2-[5-cyclopropyl-1-(4-ethoxy-2,6-difluorobenzyl)-4-methyl-1H-pyrazol-3-yl]-6-(pyridin-4-ylamino)pyrimidin-4-yl}-3-ethylurea], the IC50 in assay [1] (setting [2]) came out at 48 nM; in the assay with HeLa cell line, 1700 nM; with HeLa-MaTu-ADR cell line, 1100 nM; in the assay with NCl-H460 cell line, 1500 nM; in the assay with DU145 cell line, 2800 nM; in the assay on Caco2 cell line, 1400 nM. For the same compound, the IC50 with B16F10 cell line turned out to be 1200 nM.

As for `CCOc1cc(F)c(Cn2nc(-c3nc(Nc4ccncc4)c(OCCOC)c(Nc4ccncc4)n3)c(C)c2C2CC2)c(F)c1` [Example 2-2-12, 2-[5-cyclopropyl-1-(4-ethoxy-2,6-difluorobenzyl)-4-methyl-1H-pyrazol-3-yl]-5-(2-methoxyethoxy)-N,N′-di(pyridin-4-yl)pyrimidine-4,6-diamine], the IC50 in assay [1] (setting [2]) came to 480 nM; with HeLa cell line it was 970 nM; with HeLa-MaTu-ADR cell line, 730 nM; in the assay with NCl-H460 cell line, 1200 nM; in the assay with DU145 cell line, 1700 nM; with Caco2 cell line, 1100 nM. In addition, the IC50 in the assay with B16F10 cell line was found to be 400 nM.

As for `CCOc1cc(F)c(Cn2nc(-c3nc(Nc4ccncc4)c(N4CCOCC4)c(Nc4ccncc4)n3)c(C)c2C2CC2)c(F)c1` [Example 2-2-6, 2-[5-cyclopropyl-1-(4-ethoxy-2,6-difluorobenzyl)-4-methyl-1H-pyrazol-3-yl]-5-(morpholin-4-yl)-N,N′-di(pyridin-4-yl)pyrimidine-4,6-diamine], the IC50 is 220 nM in assay [1]; 7000 nM in the assay with HeLa cell line (4 days incubation, crystal violet staining); 820 nM in the assay on HeLa-MaTu-ADR cell line (setting [3]); 1100 nM in the assay on NCl-H460 cell line (setting [4]); 1900 nM in the assay on DU145 cell line (setting [5]); 2600 nM with Caco2 cell line (setting [6]). Also, the IC50 in the assay on B16F10 cell line (setting [7]) is 990 nM.

For the compound `CCOc1cc(F)c(Cn2nc(-c3nc(Nc4ccncn4)nc(Nc4ccncn4)n3)c(C)c2C2CC2)c(F)c1` [Example 2-2-9, 6-[5-cyclopropyl-1-(4-ethoxy-2,6-difluorobenzyl)-4-methyl-1H-pyrazol-3-yl]-N,N′-di(pyrimidin-4-yl)-1,3,5-triazine-2,4-diamine], the IC50 came out at 1700 nM in assay [1]; 1700 nM with HeLa cell line; 10000 nM in the assay on HeLa-MaTu-ADR cell line (setting [3]); 9900 nM in the assay with NCl-H460 cell line (setting [4]); 3200 nM in the assay with DU145 cell line (setting [5]); 3500 nM in the assay with Caco2 cell line (setting [6]). The IC50 in the assay with B16F10 cell line (setting [7]) is 8800 nM.

Take `CCOc1cc(F)c(Cn2nc(-c3nc(Nc4ccncn4)cc(Nc4ccncn4)n3)c(C)c2C2CC2)c(F)c1` [Example 2-2-3, 2-[5-cyclopropyl-1-(4-ethoxy-2,6-difluorobenzyl)-4-methyl-1H-pyrazol-3-yl]-N,N′-di(pyrimidin-4-yl)pyrimidine-4,6-diamine]: the IC50 in assay [1] (setting [2]) stood at 20 nM; in the assay with HeLa cell line, 560 nM; in the assay with HeLa-MaTu-ADR cell line, 700 nM; in the assay on NCl-H460 cell line it was 1600 nM; in the assay with DU145 cell line it was 2100 nM; in the assay with Caco2 cell line, 2600 nM. Also, the IC50 in the assay with B16F10 cell line worked out at 500 nM.
